Data taken from patent US7883888B2, “Peptides selectively lethal to malignant and transformed mammalian cells” (The Research Foundation —The State University of New York, priority 2000, dated 2011).

Tests used:
[1] = tested on: TUC-3 cells; experiment: TUC-3 transformed pancreatic cancer cells in culture treated with synthetic peptide; type: cell-based, rat; details: for EFFECT: Table 3, leader is SEQ ID NO:4
Excerpt: (§1) A line of rat pancreatic acinar cells (BMRPA.430) grown in culture was transformed with K-ras.

[2] = tested on: human cancer cells, including homozygously p53 gene-deleted; experiment: toxicity of subject peptides to human cancer cells; type: cell-based
Description: The following experiment was performed to compare effectiveness of subject peptides having the leader sequence attached to the amino terminal end.

[3] = tested on: Melanoma cells; experiment: Melanoma cells treated with synthetic peptide; type: cell-based; details: 100 μg/ml
[4] = tested on: HeLa cells; experiment: HeLa cells treated with synthetic peptide; type: cell-based; details: 100 μg/ml
[5] = tested on: human breast carcinoma cell lines; experiment: human breast carcinoma cell lines treated with synthetic peptide; type: cell-based; details: 100 μg/ml
[6] = tested on: non-malignant and non-transformed human breast cell lines; experiment: non-malignant, non-transformed human breast cell lines treated with synthetic peptide; type: cell-based; details: 100 μg/ml
[7] = tested on: non-malignant and non-transformed fibroblast cell lines; experiment: non-malignant, non-transformed fibroblast cell lines treated with synthetic peptide; type: cell-based, human; details: 100 μg/ml
[8] = tested on: BMRPA.430 cells; experiment: normal pancreatic acinar cells BMRPA.430 in culture treated with synthetic peptide; type: cell-based, rat; details: 50 μg/ml; normal cell line
Excerpt: as §1

[9] = tested on: malignant or normal cells; experiment: control peptide with leader on malignant or normal cells; type: cell-based; details: leader SEQ ID NO:4 at carboxy terminal end of control peptide
Description: When the leader sequence set forth in SEQ ID NO:4 was positioned at the carboxy terminal end of PNC29, a control protein having the following amino acid sequence: [sequence]

[10] = tested on: pancreatic carcinoma cells BMRPA1. TUC-3; experiment: s.c. BMRPA1.TUC-3 xenotransplant in Nu/Nu mice, established tumors, osmotic pump delivery (Example II); type: in vivo
Description: Nu/Nu mice (Harlan Laboratories, Indianapolis, Ind., n=10) and weighing 20-22 g, were xenotransplanted subcutaneously (s.c.) with live pancreatic carcinoma cells BMRPA1. TUC-3 (1×10^6 cells/mouse) in the left hind region.
Each group was implanted s.c. with Alzet® osmotic pumps to deliver in a constant rate and over a defined period of 14 days a total volume of 0.095 ml volume of normal saline containing the respective peptide at a concentration of 20 mg/mouse. […] The pumps were filled according to the manufacturers guidelines and under sterile conditions The pumps were implanted s.c. on the left flank of the anaesthetized mice by creating a pocket underneath the mouse skin into which the tiny pumps were inserted. Each pocket was closed with a simple suture. From their inside chamber the pumps delivered continuously 0.25 μl/hr into each mouse. The mice were observed until they had recovered from the surgery when they were returned to the isolation ward of the animal facility. Since the animals were Nu/Nu mice and, thus, immuno-compromised they are highly susceptible when exposed to pathogens. Surgery and all preceding and post-surgical treatments were therefore performed in a sterile hood environment.

[11] = tested on: cultured cancer cells; experiment: cultured cancer cells treated with peptide without leader or with leader alone; type: cell-based; details: 100 μg/ml
Description: When cultured cancer cells were treated with a peptide with the primary structure of SEQ ID NO:1 without a leader sequence attached, at a dosage of 100 μg/ml, the cells were unaffected. Similarly, when cultured cancer cells were treated with leader sequence SEQ ID NO:4, the presently preferred leader sequence, at the same dosage, the cell were also unaffected.

PNC 21: p53 seq. 12-20 (PPLSQETFS) (SEQ ID NO: 2)-Leader; leader is KKWKMRRNQFWVKVQRG (SEQ ID NO:4) (PPLSQETFSKKWKMRRNQFWVKVQRG; amino acid residue 12-20 of human p53 protein; penetration leader sequence from antennapedia)
EFFECT [1]: Cytotoxic
toxicity to a wide variety of human cancer cells [2]: strongly toxic

PNC 27: p53 seq. 12-26 (PPLSQETFSDLWKLL) (SEQ ID NO: 1)-Leader; leader is KKWKMRRNQFWVKVQRG (SEQ ID NO:4) (PPLSQETFSDLWKLLKKWKMRRNQFWVKVQRG; amino acid residue 12-26 of human p53 protein; penetration leader sequence from antennapedia)
death of TUC-3 cells ([1]; 100 μg/ml): died within three to four days
EFFECT [1]: Cytotoxic
cell death in Melanoma cells [3]: cell death was observed
toxicity to a wide variety of human cancer cells [2]: strongly toxic
cell death in HeLa cells [4]: cell death was observed
cell death in human breast carcinoma cell lines [5]: cell death was observed
effect on non-malignant and non-transformed human breast cell lines [6]: no effect
effect on non-malignant and non-transformed fibroblast cell lines [7]: no effect
effect on BMRPA.430 cells [8]: not affected

PNC-29: control peptide of similar size, amino acid sequence MPFSTGKRIMLGE (SEQ ID NO: 25); in b48 with leader SEQ ID NO:4 at carboxy end (used as a control)
effect on malignant or normal cells [9]: no effect
effect on normal or tumor cells ([10]; control peptide, s.c. pump, 20 mg/mouse): no effect
tumor diameter ([10]; over the 2-week treatment and follow-up period): 10 to 16 mm
tumor growth ([10]; s.c. pump over 14 days, 20 mg/mouse, tumors 3 to 6 mm at start): kept growing at a continuous rate

SEQ ID NO:1 without a leader sequence attached: peptide PPLSQETFSDLWKLL (SEQ ID NO:1) without a leader sequence attached (amino acid residue 12-26 of human p53 protein)
effect on cultured cancer cells [11]: unaffected

SEQ ID NO:4: penetratin leader sequence from antennapedia protein alone, KKWKMRRNQFWVKVQRG (penetration leader sequence from antennapedia)
effect on cultured cancer cells [11]: unaffected
